Test results from patent US8741955B2, “D-serine transporter inhibitors as pharmaceutical compositions for the treatment of central nervous system disorders” (Allergan, Inc., priority 2011, dated 2014).

Legend:
human ASCT1 = molecular target: T1, human ASCT1 (Homo sapiens, UniProt P43007); experiment: transport into HEK cells expressing ASCT1; type: cell-based
T1 construct: expressed in transfected cells; host or cells: HEK (human embryonic kidney) cells
T1 sequence (P43007 1-532): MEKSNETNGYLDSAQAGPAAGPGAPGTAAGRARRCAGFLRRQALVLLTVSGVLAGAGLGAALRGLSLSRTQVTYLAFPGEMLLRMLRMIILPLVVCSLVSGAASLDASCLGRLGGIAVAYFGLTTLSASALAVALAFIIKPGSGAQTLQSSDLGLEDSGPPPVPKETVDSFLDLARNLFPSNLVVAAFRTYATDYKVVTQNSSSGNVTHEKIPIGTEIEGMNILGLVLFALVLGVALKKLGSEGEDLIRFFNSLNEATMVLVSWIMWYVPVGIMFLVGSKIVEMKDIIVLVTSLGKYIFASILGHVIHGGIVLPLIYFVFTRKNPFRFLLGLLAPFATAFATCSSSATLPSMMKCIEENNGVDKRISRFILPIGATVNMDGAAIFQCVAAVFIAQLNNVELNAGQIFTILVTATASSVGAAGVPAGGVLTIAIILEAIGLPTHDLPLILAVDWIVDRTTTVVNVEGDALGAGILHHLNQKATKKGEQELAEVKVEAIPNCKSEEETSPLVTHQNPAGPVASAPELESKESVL
Protocol: (§1) Cell-based assays: the transport of [^3H]L- or D-serine was measured in primary cultures of rat hippocampal astrocytes or in human embryonic kidney (HEK) cells expressing ASCT transporter sub-types. For the astrocyte assays, cells were plated on either 24- or 96-well plates at a density of 50,000 cells per well. For the HEK assays, cells were plated on coated 96-well plates at a density of 80,000 cells/well. Assays were conducted in duplicate at room temperature in assay buffer consisting of: NaCl: 150 mM, KCl: 2 mM; MgCl2: 1 mM; CaCl2: 1 mM; HEPES: Tris buffer: 10 mM, pH7.4. To assess the sodium-dependence of transport, NaCl was replaced in the assay buffer by equimolar choline chloride. Following aspiration of growth medium and 2 washes with assay buffer, cells were incubated with [^3H]L- or D-serine at a final concentration of 1 μM for 5 min (astrocytes) or 1 min (HEK cells), after which the incubation medium was aspirated and the cells washed twice with ice-cold assay buffer. Cells containing radiolabel were solubilized in 100 μl of 1% Triton-X100 and an aliquot counted in a beta counter. IC50 values were determined over a range of at least 6 concentrations and derived from curve-fitting algorithms available in GraphPad Prism 4.

[1] = test system: amphetamine-induced hyperlocomotion; settings: systemic administration; Smith et al, 2009; cited from earlier work
[2] = test system: rat hippocampal astrocytes; experiment: [3H]L-serine transport into astrocytes; type: cell-based
Protocol: as §1

[3] = test system: rat hippocampal astrocytes; experiment: [3H]D-serine transport into primary cultures of rat hippocampal astrocytes; type: cell-based; settings: Astrocyte; inhibition of [3H]D-serine transport, rat hippocampal astrocytes; means of at least two determinations
[4] = test system: long-term potentiation (LTP) in the primary visual cortex; experiment: long term potentiation in primary visual cortex slices; design: species or system rat
Protocol: Long Term Potentiation (LTP) in primary visual cortex has been used as a cellular model for visual cortex plasticity and has functional consequences on visual evoked responses. NMDA receptors play a critical role in visual cortex LTP induction.
Following decapitation of the rat, the brain was rapidly removed and immersed in ice-cold artificial cerebrospinal fluid (ACSF) containing 124 mM NaCl, 3 mM KCl, 1.25 mM KH2PO4, 3.4 mM CaCl2, 2.5 mM MgSO4, 26 mM NaHCO3, and 10 mM D-glucose. A block of visual cortex was created by removing the frontal ⅔ portion of the brain and the cerebellum. Coronal visual cortex slices of 375 μm were prepared from adult Sprague Dawley (SD) rats using a vibratome (VT 1000 S; Leica). The slices were maintained in an interface recording chamber perfused with preheated ACSF. Slices were continuously perfused with this solution at a rate of 1.00-1.50 ml/min while the surface of the slices was exposed to warm, humidified 95% O2/5% CO2 and maintained at 31±1° C. Visual cortex slices were allowed to recover for 1 hr before recording began. […] This was repeated 2 additional times with a 1 minute intertrain interval, and the level of LTP was recorded for at least 30 min. Changes in amplitude of the synaptic response were used to measure the extent of LTP because it was determined to be the more consistent parameter than the slope of the response. […]

inhibition of [3H]L-serine transport in ASCT1-expressing HEK cells (human ASCT1)	IC50 [3] [µM]	Compound	transport of [3H]D-serine into ASCT1-expressing HEK cells (substrate) (human ASCT1; with and without extracellular sodium)	effect on amphetamine-induced hyperlocomotion (literature) [1]	inhibition of [3H]L-serine transport in astrocytes [2]	effect on LTP with D-AAO in the perfusion medium ([4]; 0.2 unit/ml DAAO)	effect on LTP evoked by theta burst stimulation in visual cortex slice ([4]; rat visual cortex slice)
completely inhibited	1580	N[C@H](CO)C(=O)O [D-serine]	transported into ASCT1-expressing HEK cells in a sodium-dependent manner	reduce amphetamine-induced hyperlocomotion	completely inhibited	–	–
–	–	N[C@H](C(=O)O)c1ccc(O)cc1 [L-4-hydroxyphenylglycine]	–	–	–	completely prevented	enhanced LTP in a concentration-dependent manner
